Reference: patent US9328122B2, “7-substituted Hanfangichin B derivative, and preparation method and use thereof” (HANGZHOU BENSHENG PHARMACEUTICAL CO., LTD., priority 2012, dated 2016)
Values after ≈ are worked out from the molar mass of the structure shown.

Key:
tumor = assay: Antitumor activity compared with fangchinoline, overall statement; type: cell-based; conditions: tumor type not specified
[1] = system: NB4 (acute promyelocytic leukemia) cells; assay: MTT cell growth inhibition, leukemia cells; type: cell-based; conditions: Homo sapiens, NB4, 72 h, MTT
Text: (§1) Leukemia cell lines: leukemia cell lines: K562adr (drug-resistant, chronic myeloid leukemia, CML), NB4 (acute promyelocytic leukemia, AML), Kasumi-1 (acute myeloid leukemia M2 type, AML-M2), Jurkat (acute lymphoblastic leukemia, ALL), all of which were donated by Cancer Research Institute of Zhejiang University, China; and H9 (acute lymphoblastic leukemia, ALL), which was purchased from China Center for Type Culture Collection.
(§2) Reagents: The standard sample of fangchinoline (FAN) was purchased from Ci Yuan Biotechnology Co., Ltd., Shaanxi, China; and the 7-substituted fangchinoline derivatives according to the present invention.
(§3) 6000 well-growing leukemia cells were obtained and inoculated into wells of a 96-well cell culture plate. The culture medium was a RPMI-1640 cell culture medium containing 10% fetal bovine serum. After adding the 7-substituted fangchinoline derivatives of different concentrations the next day and mixing uniformly, the plate was placed in a carbon dioxide cell incubator (5% CO2) at 37° C. and incubating for 72 hours. Then the viable cell concentration was determined by the MTT method.

[2] = system: K562/ADR (K562adr, drug-resistant chronic myeloid leukemia) cells; assay: MTT cell growth inhibition, leukemia cells; type: cell-based; conditions: Homo sapiens, K562/ADR, 72 h, MTT
Text: as §1, §2, §3

[3] = system: H9 (acute lymphoblastic leukemia) cells; assay: MTT cell growth inhibition, leukemia cells; type: cell-based, human; conditions: Homo sapiens, H9, 72 h, MTT
Text: as §1, §2, §3

[4] = system: Kasumi-1 (acute myeloid leukemia M2 type) cells; assay: MTT cell growth inhibition, leukemia cells; type: cell-based, human; conditions: Homo sapiens, Kasumi-1, 72 h, MTT
Text: as §1, §2, §3

[5] = system: Jurkat (acute lymphoblastic leukemia) cells; assay: MTT cell growth inhibition, leukemia cells; type: cell-based, human; conditions: Homo sapiens, Jurkat, 72 h, MTT
Text: as §1, §2, §3

[6] = system: MG-63 (osteosarcoma) cells; assay: MTT cell growth inhibition, solid tumor cells; type: cell-based; conditions: Homo sapiens, MG-63, 72 h, MTT
Text: (§4) Hep-2 (laryngeal carcinoma), A549 (human lung cancer), CaES-17 (esophageal cancer cell), PC-3 (prostate cancer), CNE (nasopharyngeal carcinoma cell) and SK-OV-3 (ovarian cancer cell), all of which were purchased from China Center For Type Culture Collection; RKO (human colon adenocarcinoma cell), MGC-803 (human gastric cancer cell), MG-63 (osteosarcoma), and U87-MG (malignant glioma cell), all of which were purchased from Fuxiang Bio-tech Co. Ltd., Shanghai, China; PANC-1 (pancreatic cancer), Becap37 (human breast cancer cell), Hela (human cervical cancer cell) and Hep G2 (human liver cancer cell), all of which were donated by Cancer Research Institute of Zhejiang University, China.
as §3, with “human solid tumor” for “leukemia”, “DMEM High Glucose” for “a RPMI-1640”, “serum. The plate was placed in a carbon dioxide cell incubator (5% CO2) at 37° C. and incubated for 24 hours.” for “serum.”, “added with” for “adding the”, “concentration” for “concentrations the next day”, “incubated” for “incubating”

[7] = system: U87-MG (malignant glioma) cells; assay: MTT cell growth inhibition, solid tumor cells; type: cell-based; conditions: Homo sapiens, U-87 MG, U87-MG, 72 h, MTT
Text: as §4
as §3, with “human solid tumor” for “leukemia”, “DMEM High Glucose” for “a RPMI-1640”, “serum. The plate was placed in a carbon dioxide cell incubator (5% CO2) at 37° C. and incubated for 24 hours.” for “serum.”, “added with” for “adding the”, “concentration” for “concentrations the next day”, “incubated” for “incubating”

[8] = system: RKO (human colon adenocarcinoma) cells; assay: MTT cell growth inhibition, solid tumor cells; type: cell-based; conditions: Homo sapiens, RKO, 72 h, MTT
Text: as §4
as §3, with “human solid tumor” for “leukemia”, “DMEM High Glucose” for “a RPMI-1640”, “serum. The plate was placed in a carbon dioxide cell incubator (5% CO2) at 37° C. and incubated for 24 hours.” for “serum.”, “added with” for “adding the”, “concentration” for “concentrations the next day”, “incubated” for “incubating”

[9] = system: A549 (human lung cancer) cells; assay: MTT cell growth inhibition, solid tumor cells; type: cell-based; conditions: Homo sapiens, A549, 72 h, MTT
Text: as §4
as §3, with “human solid tumor” for “leukemia”, “DMEM High Glucose” for “a RPMI-1640”, “serum. The plate was placed in a carbon dioxide cell incubator (5% CO2) at 37° C. and incubated for 24 hours.” for “serum.”, “added with” for “adding the”, “concentration” for “concentrations the next day”, “incubated” for “incubating”

[10] = system: Hela (human cervical cancer) cells; assay: MTT cell growth inhibition, solid tumor cells; type: cell-based; conditions: Homo sapiens, Hela, 72 h, MTT
Text: as §4
as §3, with “human solid tumor” for “leukemia”, “DMEM High Glucose” for “a RPMI-1640”, “serum. The plate was placed in a carbon dioxide cell incubator (5% CO2) at 37° C. and incubated for 24 hours.” for “serum.”, “added with” for “adding the”, “concentration” for “concentrations the next day”, “incubated” for “incubating”

[11] = system: MGC-803 (human gastric cancer) cells; assay: MTT cell growth inhibition, solid tumor cells; type: cell-based; conditions: MGC-803, 72 h, MTT
Text: as §4
as §3, with “human solid tumor” for “leukemia”, “DMEM High Glucose” for “a RPMI-1640”, “serum. The plate was placed in a carbon dioxide cell incubator (5% CO2) at 37° C. and incubated for 24 hours.” for “serum.”, “added with” for “adding the”, “concentration” for “concentrations the next day”, “incubated” for “incubating”

[12] = system: Hep-2 (laryngeal carcinoma) cells; assay: MTT cell growth inhibition, solid tumor cells; type: cell-based; conditions: Homo sapiens, Hep-2, 72 h, MTT
Text: as §4
as §3, with “human solid tumor” for “leukemia”, “DMEM High Glucose” for “a RPMI-1640”, “serum. The plate was placed in a carbon dioxide cell incubator (5% CO2) at 37° C. and incubated for 24 hours.” for “serum.”, “added with” for “adding the”, “concentration” for “concentrations the next day”, “incubated” for “incubating”

[13] = system: Hep G2 (human liver cancer) cells; assay: MTT cell growth inhibition, solid tumor cells; type: cell-based; conditions: Homo sapiens, HepG2, Hep G2, 72 h, MTT
Text: as §4
as §3, with “human solid tumor” for “leukemia”, “DMEM High Glucose” for “a RPMI-1640”, “serum. The plate was placed in a carbon dioxide cell incubator (5% CO2) at 37° C. and incubated for 24 hours.” for “serum.”, “added with” for “adding the”, “concentration” for “concentrations the next day”, “incubated” for “incubating”

[14] = system: Becap-37 (human breast cancer) cells; assay: MTT cell growth inhibition, solid tumor cells; type: cell-based; conditions: Homo sapiens, Becap-37, 72 h, MTT
Text: as §4
as §3, with “human solid tumor” for “leukemia”, “DMEM High Glucose” for “a RPMI-1640”, “serum. The plate was placed in a carbon dioxide cell incubator (5% CO2) at 37° C. and incubated for 24 hours.” for “serum.”, “added with” for “adding the”, “concentration” for “concentrations the next day”, “incubated” for “incubating”

[15] = system: CNE (nasopharyngeal carcinoma) cells; assay: MTT cell growth inhibition, solid tumor cells; type: cell-based, human; conditions: Homo sapiens, CNE, 72 h, MTT
Text: as §4
as §3, with “human solid tumor” for “leukemia”, “DMEM High Glucose” for “a RPMI-1640”, “serum. The plate was placed in a carbon dioxide cell incubator (5% CO2) at 37° C. and incubated for 24 hours.” for “serum.”, “added with” for “adding the”, “concentration” for “concentrations the next day”, “incubated” for “incubating”

[16] = system: PANC-1 (pancreatic cancer) cells; assay: MTT cell growth inhibition, solid tumor cells; type: cell-based, human; conditions: Homo sapiens, PANC-1, 72 h, MTT
Text: as §4
as §3, with “human solid tumor” for “leukemia”, “DMEM High Glucose” for “a RPMI-1640”, “serum. The plate was placed in a carbon dioxide cell incubator (5% CO2) at 37° C. and incubated for 24 hours.” for “serum.”, “added with” for “adding the”, “concentration” for “concentrations the next day”, “incubated” for “incubating”

[17] = system: CaEs-17 (esophageal cancer) cells; assay: MTT cell growth inhibition, solid tumor cells; type: cell-based, human; conditions: Homo sapiens, CaEs17, CaEs-17, 72 h, MTT
Text: as §4
as §3, with “human solid tumor” for “leukemia”, “DMEM High Glucose” for “a RPMI-1640”, “serum. The plate was placed in a carbon dioxide cell incubator (5% CO2) at 37° C. and incubated for 24 hours.” for “serum.”, “added with” for “adding the”, “concentration” for “concentrations the next day”, “incubated” for “incubating”

[18] = system: SK-OV-3 (ovarian cancer) cells; assay: MTT cell growth inhibition, solid tumor cells; type: cell-based, human; conditions: Homo sapiens, SK-OV-3, 72 h, MTT
Text: as §4
as §3, with “human solid tumor” for “leukemia”, “DMEM High Glucose” for “a RPMI-1640”, “serum. The plate was placed in a carbon dioxide cell incubator (5% CO2) at 37° C. and incubated for 24 hours.” for “serum.”, “added with” for “adding the”, “concentration” for “concentrations the next day”, “incubated” for “incubating”

[19] = system: PC-3 (prostate cancer) cells; assay: MTT cell growth inhibition, solid tumor cells; type: cell-based, human; conditions: Homo sapiens, PC-3, 72 h, MTT
Text: as §4
as §3, with “human solid tumor” for “leukemia”, “DMEM High Glucose” for “a RPMI-1640”, “serum. The plate was placed in a carbon dioxide cell incubator (5% CO2) at 37° C. and incubated for 24 hours.” for “serum.”, “added with” for “adding the”, “concentration” for “concentrations the next day”, “incubated” for “incubating”

## COc1ccc2cc1Oc1ccc(cc1)C[C@H]1c3cc(c(OC)cc3CCN1C)Oc1c(OCc3ccc(C(F)(F)F)cc3)c(OC)cc3c1[C@H](C2)N(C)CC3 [BS-FC-216]
tumor
  antitumor activity compared with that of fangchinoline: significantly superior
[1]; read-out: IC50
  IC50: 0.99 µg/mL (≈ 1.29 µM)
[1]; read-out: IC90
  IC90: 2.93 µg/mL (≈ 3.82 µM)
[2]; read-out: IC50
  IC50: 0.6 µg/mL (≈ 0.782 µM)
[2]; read-out: IC90
  IC90: 2.15 µg/mL (≈ 2.8 µM)
[3]; read-out: IC50
  IC50: 1.8 µg/mL (≈ 2.35 µM)
[3]; read-out: IC90
  IC90: 3.3 µg/mL (≈ 4.3 µM)
[4]; read-out: IC50
  IC50: 3.22 µg/mL (≈ 4.2 µM)
[4]; read-out: IC90
  IC90: 7.22 µg/mL (≈ 9.42 µM)
[5]; read-out: IC50
  IC50: 1.42 µg/mL (≈ 1.85 µM)
[5]; read-out: IC90
  IC90: 2.91 µg/mL (≈ 3.79 µM)
[6]; read-out: IC50
  IC50: 3.4 µg/mL (≈ 4.43 µM)
[6]; read-out: IC90
  IC90: 5.5 µg/mL (≈ 7.17 µM)
[7]; read-out: IC50
  IC50: 2.11 µg/mL (≈ 2.75 µM)
[7]; read-out: IC90
  IC90: 7.74 µg/mL (≈ 10.1 µM)
[8]; read-out: IC50
  IC50: 1.69 µg/mL (≈ 2.2 µM)
[8]; read-out: IC90
  IC90: 5.79 µg/mL (≈ 7.55 µM)
[9]; read-out: IC50
  IC50: 2.7 µg/mL (≈ 3.52 µM)
[9]; read-out: IC90
  IC90: 5.9 µg/mL (≈ 7.69 µM)
[10]; read-out: IC50
  IC50: 1.58 µg/mL (≈ 2.06 µM)
[10]; read-out: IC90
  IC90: 3.84 µg/mL (≈ 5.01 µM)
[11]; read-out: IC50
  IC50: 2.72 µg/mL (≈ 3.55 µM)
[11]; read-out: IC90
  IC90: 3.98 µg/mL (≈ 5.19 µM)
[12]; read-out: IC50
  IC50: 3.69 µg/mL (≈ 4.81 µM)
[12]; read-out: IC90
  IC90: 7.88 µg/mL (≈ 10.3 µM)
[13]; read-out: IC50
  IC50: 2.54 µg/mL (≈ 3.31 µM)
[13]; read-out: IC90
  IC90: 5.91 µg/mL (≈ 7.71 µM)
[14]; read-out: IC50
  IC50: 3.36 µg/mL (≈ 4.38 µM)
[14]; read-out: IC90
  IC90: 5.3 µg/mL (≈ 6.91 µM)
[15]; read-out: IC50
  IC50: 3.38 µg/mL (≈ 4.41 µM)
[15]; read-out: IC90
  IC90: 7.34 µg/mL (≈ 9.57 µM)
[16]; read-out: IC50
  IC50: 3.62 µg/mL (≈ 4.72 µM)
[16]; read-out: IC90
  IC90: 7.25 µg/mL (≈ 9.45 µM)
[17]; read-out: IC50
  IC50: 3.1 µg/mL (≈ 4.04 µM)
[17]; read-out: IC90
  IC90: 7.59 µg/mL (≈ 9.9 µM)
[18]; read-out: IC50
  IC50: 6.19 µg/mL (≈ 8.07 µM)
[18]; read-out: IC90
  IC90: 11.2 µg/mL (≈ 14.6 µM)
[19]; read-out: IC50
  IC50: 3.95 µg/mL (≈ 5.15 µM)
[19]; read-out: IC90
  IC90: 7.45 µg/mL (≈ 9.71 µM)
